{"source": "patent US6407104B1", "about": "“Pyrrolo[1,2-a]pyrazine spla2 inhibitor” (Shionogi & Co., Ltd., priority 1998, dated 2002)", "key": {"[1]": {"target": "T1, recombinant human secretory phospholipase A2 (Homo sapiens, UniProt P14555)", "T1 sequence (P14555 21-144)": "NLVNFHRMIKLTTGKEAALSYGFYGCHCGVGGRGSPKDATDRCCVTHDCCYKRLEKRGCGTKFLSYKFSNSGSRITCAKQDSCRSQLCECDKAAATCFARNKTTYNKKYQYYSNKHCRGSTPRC", "assay": "Inhibition Test of Human Secretory Phospholipase A2 (chromogenic assay)", "assay_type": "biochemical", "conditions": "sPLA2 50 ng/well, 40° C., 30 minutes, OD 405 nm, 96 well microtiterplate", "from_the_text": "Test Example: Inhibition Test of Human Secretory Phospholipase A2\nIn order to identify and evaluate an inhibitor of recombinant human secretory phospholipase A2, the following chromogenic assay is utilized. The assay herein has been applied for high volume screening wherein 96 well microtiterplate is used. A general explanation for such assay is described in “Analysis of Human Synovial Fluid Phospholipase A2 on Short Chain Phosphatidylcholine-Mixed Micelles: Development of a Spectrophotometric Assay Suitable for a Micortiterplate Reader” (Analytical Biochemistry, 204, pp 190-197, 1992 by Laure. J. Reynolds. Lori L. Hughes and Edward A. Dennis: the disclosure of which is incorporated herein for reference.\npH 7.5 (adjusted with NaOH)\npH 4.5 (adjusted with acetic acid)\n1 mg of sPLA2 is dissolved in 1 ml of an enzyme buffer. Thereafter, the solution is maintained at 4° C.\nIn the assay, 5 μl of the solution is diluted with 1995 μl of the reaction buffer to be used.\n198 mg of 5,5′-dithiobis-2-[…] (manufactured by Wako Pure Chemicals) is dissolved in 100 ml of H2O\nH 7.5 (adjusted with NaOH)\n100 mg of racemic 1,2-bis(heptanoylthio)-1,2-dideoxy-sn-glycero-3-phospholylcholine is dissolved in 1 ml of chloroform.\n624.9 mg of Triton-X 100 is dissolved in the reaction buffer.\nEnzyme Reaction: for 1 Plate of Microtiterplate\n1) 0.106 ml of the substrate solution is put in a centrifugal tube, and nitrogen gas is jetted to remove the solvent. 0.54 ml of Triton-X 100 is added thereto, the mixture is stirred, thereafter it is sonified in a bath type sonification to dissolve. To the resulting product are added 17.8 ml of the reaction buffer and 0.46 ml of DTNB, and 0.18 ml each of the admixture is poured to wells of the 96 well microtiterplate.\n2) 10 μl of a test compound (or solvent blank) are added in accordance with alignment of plates which has been previously set.\n3) Incubation is effected at 40° C. for 15 minutes.\n4) 20μl of an enzyme solution (sPLA2) which has been previously diluted (50 ng/well) are added to start reaction (40° C., 30 minutes).\n5) Changes in absorbancy for 30 minutes are measured by a plate reader, and inhibition activity was calculated (OD: 405 nm).\n6) IC50 was determined by plotting log concentration with respect to inhibition values within 10% to 90% inhibiting range."}}, "data": [{"smiles": "CCc1c(C(=O)C(N)=O)c2c(OCC(=O)O)nc(C(C)C)cn2c1Cc1ccccc1", "note": "[Compound I-40]", "values": [{"measurement": "melting point", "result": "211 to 213", "unit": "°C"}, {"measurement": "IC50", "setting": "[1]", "result": 0.012, "unit": "µM"}]}, {"smiles": "CCc1c(C(=O)C(N)=O)c2c(OCC(=O)OC)nc(C)cn2c1Cc1ccccc1Oc1ccccc1", "note": "[Compound I-55]", "values": [{"measurement": "melting point", "result": "161 to 163", "unit": "°C"}, {"measurement": "IC50", "setting": "[1]", "result": 0.032, "unit": "µM"}]}, {"smiles": "COC(=O)COc1nccn2c(Cc3ccccc3)c(C3CC3)c(C(=O)C(N)=O)c12", "note": "[Compound I-3]", "values": [{"measurement": "melting point", "result": "177 to 179", "unit": "°C"}, {"measurement": "IC50", "setting": "[1]", "result": 2.62, "unit": "µM"}]}, {"smiles": "CCc1c(C(=O)C(N)=O)c2c(OCC(=O)OC)nc(C)cn2c1Cc1cccc(F)c1", "note": "[Compound I-35]", "values": [{"measurement": "melting point", "result": "179.5 to 181", "unit": "°C"}, {"measurement": "IC50", "setting": "[1]", "result": 0.182, "unit": "µM"}]}, {"smiles": "CCOC(=O)COc1nc(C)cn2c(Cc3ccccc3-c3ccsc3)c(CC)c(C(=O)C(N)=O)c12", "note": "[Compound I-92]", "values": [{"measurement": "melting point", "result": "185 to 186", "unit": "°C"}, {"measurement": "IC50", "setting": "[1]", "result": 0.076, "unit": "µM"}]}, {"smiles": "CCc1c(C(=O)C(N)=O)c2c(OCC(=O)OC)nc(C)cn2c1Cc1ccc(OC)cc1", "note": "[Compound I-33]", "values": [{"measurement": "melting point", "result": "189 to 190", "unit": "°C"}, {"measurement": "IC50", "setting": "[1]", "result": 0.703, "unit": "µM"}]}, {"smiles": "CCc1cn2c(Cc3ccccc3)c(CC)c(C(=O)C(N)=O)c2c(OCC(=O)O)n1", "note": "[Compound I-42]", "values": [{"measurement": "melting point", "result": "197 to 198", "unit": "°C"}, {"measurement": "IC50", "setting": "[1]", "result": 0.01, "unit": "µM"}]}, {"smiles": "CCc1c(C(=O)C(N)=O)c2c(OCC(=O)OC)nc(C)cn2c1Cc1ccccc1", "note": "[Compound I-17]", "values": [{"measurement": "melting point", "result": "192 to 194", "unit": "°C"}, {"measurement": "IC50", "setting": "[1]", "result": 0.172, "unit": "µM"}]}, {"smiles": "CCOC(=O)COc1nc(C)cn2c(Cc3ccccc3-c3cccs3)c(CC)c(C(=O)C(N)=O)c12", "note": "[Compound I-91]", "values": [{"measurement": "melting point", "result": "160 to 161", "unit": "°C"}, {"measurement": "IC50", "setting": "[1]", "result": 0.048, "unit": "µM"}]}, {"smiles": "CCc1c(C(=O)C(N)=O)c2c(OCC(=O)O)nc(CO)cn2c1Cc1ccccc1", "note": "[Compound I-38]", "values": [{"measurement": "melting point", "result": "211 to 212", "unit": "°C"}, {"measurement": "IC50", "setting": "[1]", "result": 0.033, "unit": "µM"}]}, {"smiles": "CCc1c(C(=O)C(N)=O)c2c(OCC(=O)OC)nc(C3CCCCC3)cn2c1Cc1ccccc1-c1ccccc1", "note": "[Compound I-81]", "values": [{"measurement": "melting point", "result": "161.5 to 162.5", "unit": "°C"}, {"measurement": "IC50", "setting": "[1]", "result": 0.201, "unit": "µM"}]}, {"smiles": "Cc1cn2c(Cc3ccccc3)c(C3CC3)c(C(=O)C(N)=O)c2c(OCC(=O)O)n1", "note": "[Compound I-76]", "values": [{"measurement": "melting point", "result": "194.5 to 196", "unit": "°C"}, {"measurement": "IC50", "setting": "[1]", "result": 0.029, "unit": "µM"}]}, {"smiles": "CCc1c(C(=O)C(N)=O)c2c(OCC(=O)OC)nccn2c1CC1CCCC1", "note": "[Compound I-15]", "values": [{"measurement": "melting point", "result": "165 to 166", "unit": "°C"}, {"measurement": "IC50", "setting": "[1]", "result": 0.512, "unit": "µM"}]}, {"smiles": "CCc1c(C(=O)C(N)=O)c2c(OCC(=O)O)nc(C)cn2c1Cc1ccccc1-c1ccc(C)cc1", "note": "[Compound I-70]", "values": [{"measurement": "melting point", "result": "179.5 to 181.5", "unit": "°C"}, {"measurement": "IC50", "setting": "[1]", "result": 0.005, "unit": "µM"}]}, {"smiles": "CCc1c(C(=O)C(N)=O)c2c(OCC(=O)OC)nccn2c1Cc1cccs1", "note": "[Compound I-5]", "values": [{"measurement": "melting point", "result": "165 to 166", "unit": "°C"}, {"measurement": "IC50", "setting": "[1]", "result": 0.314, "unit": "µM"}]}, {"smiles": "CCc1c(C(=O)C(N)=O)c2c(OCC(=O)OC)nc(C3CCCCC3)cn2c1Cc1ccccc1", "note": "[Compound I-79]", "values": [{"measurement": "melting point", "result": "193 to 194", "unit": "°C"}, {"measurement": "IC50", "setting": "[1]", "result": 0.062, "unit": "µM"}]}, {"smiles": "CCc1c(C(=O)C(N)=O)c2c(OCC(=O)O)nc(C)cn2c1Cc1csc2ccccc12", "note": "[Compound I-88]", "values": [{"measurement": "melting point", "result": "211 to 213", "unit": "°C"}, {"measurement": "IC50", "setting": "[1]", "result": 0.008, "unit": "µM"}]}, {"smiles": "CCc1c(C(=O)C(N)=O)c2c(OCC(=O)OC)nc(C)cn2c1Cc1ccccc1-c1ccc(F)cc1", "note": "[Compound I-29]", "values": [{"measurement": "melting point", "result": "147 to 149", "unit": "°C"}, {"measurement": "IC50", "setting": "[1]", "result": 0.056, "unit": "µM"}]}, {"smiles": "CCc1c(C(=O)C(N)=O)c2c(OCC(=O)O)nc(C)cn2c1Cc1ccc(F)cc1F", "note": "[Compound I-32]", "values": [{"measurement": "melting point", "result": "208 to 210", "unit": "°C"}, {"measurement": "IC50", "setting": "[1]", "result": 0.028, "unit": "µM"}]}, {"smiles": "CCc1c(C(=O)C(N)=O)c2c(OCC(=O)OC)nc(C(C)C)cn2c1Cc1ccccc1", "note": "[Compound I-39]", "values": [{"measurement": "melting point", "result": "190 to 191", "unit": "°C"}, {"measurement": "IC50", "setting": "[1]", "result": 0.151, "unit": "µM"}]}, {"smiles": "CCc1c(C(=O)C(N)=O)c2c(OCC(=O)OC)nc(C)cn2c1Cc1ccc(F)cc1", "note": "[Compound I-19]", "values": [{"measurement": "melting point", "result": "167 to 168", "unit": "°C"}, {"measurement": "IC50", "setting": "[1]", "result": 0.562, "unit": "µM"}]}, {"smiles": "CCc1c(C(=O)C(N)=O)c2c(OCC(=O)OC)nc(CO)cn2c1Cc1ccccc1", "note": "[Compound I-37]", "values": [{"measurement": "melting point", "result": "201 to 202", "unit": "°C"}, {"measurement": "IC50", "setting": "[1]", "result": 0.726, "unit": "µM"}]}, {"smiles": "CCc1c(C(=O)C(N)=O)c2c(OCC(=O)O)nccn2c1CC1CCCCC1", "note": "[Compound I-8]", "values": [{"measurement": "melting point", "result": "205 to 206", "unit": "°C"}, {"measurement": "IC50", "setting": "[1]", "result": 0.011, "unit": "µM"}]}, {"smiles": "CCc1cn2c(Cc3ccccc3)c(CC)c(C(=O)C(N)=O)c2c(OCC(=O)OC)n1", "note": "[Compound I-41]", "values": [{"measurement": "melting point", "result": "154 to 156", "unit": "°C"}, {"measurement": "IC50", "setting": "[1]", "result": 0.107, "unit": "µM"}]}, {"smiles": "CCc1c(C(=O)C(N)=O)c2c(OCC(=O)O)nc(C)cn2c1Cc1ccccc1C(=O)c1ccccc1", "note": "[Compound I-72]", "values": [{"measurement": "melting point", "result": "131 to 133", "unit": "°C"}, {"measurement": "IC50", "setting": "[1]", "result": 0.013, "unit": "µM"}]}, {"smiles": "CCc1c(C(=O)C(N)=O)c2c(OCC(=O)OC)nc(C)cn2c1Cc1ccccc1Cc1ccccc1", "note": "[Compound I-27]", "values": [{"measurement": "melting point", "result": "134.5 to 136", "unit": "°C"}, {"measurement": "IC50", "setting": "[1]", "result": 0.022, "unit": "µM"}]}, {"smiles": "CCc1c(C(=O)C(N)=O)c2c(OCC(=O)OC)nc(C)cn2c1Cc1ccccc1CCc1ccccc1", "note": "[Compound I-73]", "values": [{"measurement": "melting point", "result": "215 to 217", "unit": "°C"}, {"measurement": "IC50", "setting": "[1]", "result": 0.129, "unit": "µM"}]}]}
